Measured values taken from patent US20150203517A1, “Prodrugs of Compounds that Enhance Antifungal Activity and Compositions of Said Prodrugs” (priority 2014, published 2015).
Structures can show the parent of a compound that is named as a salt.

Legend:
[1] = Conversion of prodrugs to compound 1 in human plasma; format: in vitro ADME; conditions: human plasma (Na-Heparin treated), 37° C.
Procedure: (§1) Step 1. Sample preparation. A quantity of blank human plasma (Na-Heparin treated) was incubated at 37° C. for 30 minutes. An amount of the compound sample was precisely weighed to correspond to around 5.00 mg of the hydroxamate of compound 1, taking into account the mass of the leaving group and the salt factor if applicable. The sample was placed in a 16×125 mm glass screw cap tube. The incubated blank human plasma was added so that the final concentration of hydroxamate 1 was 1.00 mg/mL. The sample was sonicated for 30 seconds, shaken for 30 seconds on a Vortex apparatus, and run through the HPLC procedure of Step 2 to get a time point zero value. The samples were stored in an incubator at 37° C., and the HPLC analysis of Step 2 was repeated in 30 minutes and 1 hour.
(§2) Step 2. Protein precipitation and HPLC analysis of plasma. A 50 μL aliquot of plasma was taken in a 1.5 mL Eppendorf vial, to which was added 200 μL of MeCN. The vial was capped and shaken on a Vortex apparatus for 30 seconds, then centrifuged at 13000 rpm (15700 rcf) for five minutes. When centrifuging was complete, 100 μL of the supernatant was placed in an injection vial containing an insert, to which was added 100 μL of 0.1% formic acid in water. The vial was capped and shaken on a Vortex apparatus for 30 seconds, and the contents were injected into the HPLC-UV instrument, and a comparison was made of the retention time, peak areas and level of degradation (if any) using the GDADI50 method.
Step 3. Reference sample preparation. An amount of the compound sample was precisely weighed to correspond to around 5.00 mg of the hydroxamate of compound 1, taking into account the mass of the leaving group and the salt factor if applicable. The sample was placed in a 16×125 mm glass screw cap tube. A quantity of MeCN/H2O 50/50 v/v was added so that the final concentration of hydroxamate 1 was 1.00 mg/mL. An injection vial was filled with 100 μL of this sample stock solution and 900 μL of a solution of 40/60 MeCN/0.1% formic acid in water. The vial was capped and the contents were injected into the HPLC-UV instrument, and a comparison was made of the retention time, peak areas and level of degradation (if any) using the GDADI50 method.

[2] = Saline solubility at 1.00 mg/mL and 0.50 mg/mL (with pH by indicator paper); format: physicochemical; conditions: for pH at 1.00 mg/mL of MGCD290 in saline: final concentration of hydroxamate 1 1.00 mg/mL, pH indicator paper; for solubility at 1 h: saline or isotonic, thermodynamic from solid, 1.00 mg/mL as hydroxamate 1, shaken 1 hour, centrifuged, soluble = no precipitate formed, read-out: Soluble at 1.00 mg/mL of MGCD290 (Y/N)
Method in brief: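 Prodrug was weighed to give 1.00 mg/mL hydroxamate equivalent in saline, vortexed 1 h and centrifuged, and diluted to 0.50 mg/mL if it precipitated. pH was checked by indicator paper. Stability in solution diluted 1:1 with saline was followed by HPLC-UV at 0, 6 and 24 h.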

[3] = Conversion of prodrugs to compound 1 in mouse plasma; format: in vitro ADME; conditions: mouse plasma (Na-Heparin treated); for Prodrug loss at 0.5 hr / Prodrug loss at 1 hr: 37° C.; for Prodrug solubility in plasma: equivalent to 1.00 mg/mL of compound 1, * = Plasma quickly became cloudy
Procedure: as §1, with “blank mouse” for “blank human”, “repeated at” for “repeated in”, “1 hour” for “1 hour.”
as §2

[4] = Saline solubility at 10.00 mg/mL, 5.00 mg/mL and 2.50 mg/mL (with pH by pH meter); format: physicochemical; conditions: saline or isotonic, thermodynamic from solid, concentration expressed as equivalent of Cpd 1, highest tested concentration soluble, read-out: Highest prodrug solubility in saline (equivalent of Cpd 1)
Procedure: The following procedures were used
Step 1. Sample preparation. An amount of the compound sample was precisely weighed to correspond to around 10 mg of the hydroxamate of compound 1, taking into account the mass of the leaving group and the salt factor if applicable. The sample was placed in a 16×125 mm glass screw cap tube. Saline was added so that the final concentration of hydroxamate 1 was 10.00 mg/mL. The tube was shaken for 1 hour on a Vortex apparatus then centrifuged at 3000 rpm (1800 rcf) for 5 minutes. If the compound example was soluble (no precipitate formed) then the pH was measured with a pH meter, and the procedure continued to step 2. If a precipitate formed then the sample was diluted with saline so that the final concentration of the hydroxamate of compound 1 became 5.00 mg/mL, and the shaking and centrifuging steps were repeated. If the compound example was soluble (no precipitate formed) then the pH was measured with a pH meter, and the procedure continued to step 2. If a precipitate formed then the sample was diluted with saline so that the final concentration of the hydroxamate of compound 1 became 2.50 mg/mL, and the shaking and centrifuging steps were repeated. If the compound example was soluble (no precipitate formed) then the pH was measured with a pH meter, and the procedure continued to step 2

NCCNCC(=O)NCCC(=O)ONC(=O)Cc1ccc(CCCCc2ccccc2)cc1 [Compound 135, 2-(2-aminoethylamino)-N-(3-oxo-3-(2-(4-(4-phenylbutyl)phenyl)acetamidooxy)propyl) acetamide dihydrochloride]
Prodrug loss at 0.5 hr [1]: 98.7%
Prodrug loss at 1 hr [1]: 99.8%
pH at 1.00 mg/mL of MGCD290 in saline [2]: 4.5-5
solubility at 1 h [2]: > 1000 µg/mL
Prodrug loss at 0.5 hr [3]: 100%
Prodrug loss at 1 hr [3]: 100%
Prodrug solubility in plasma [3]: Yes*
solubility at 1 h [4]: 10000 µg/mL

COCCOCC(=O)NCCCC[C@H](NC(=O)COCCOC)C(=O)NCCCC(=O)ONC(=O)Cc1ccc(CCCCc2ccccc2)cc1 [Compound 100]
Prodrug loss at 0.5 hr [1]: 69.4%
Prodrug loss at 1 hr [1]: 93.4%
pH at 1.00 mg/mL of MGCD290 in saline [2]: 4.5-5
solubility at 1 h [2]: > 1000 µg/mL
Prodrug loss at 0.5 hr [3]: 100%
Prodrug loss at 1 hr [3]: 100%
Prodrug solubility in plasma [3]: Yes*
solubility at 1 h [4]: 1000 µg/mL

COCCOCCOCC(=O)NCCCC[C@H](NC(=O)COCCOCCOC)C(=O)NCCC(=O)ONC(=O)Cc1ccc(CCCCc2ccccc2)cc1 [Compound 63, (S)—N,N′-(6-Oxo-6-(3-oxo-3-(2-(4-(4-phenylbutyl)phenyl)acetamidooxy)propylamino)hexane-1,5-diyl)bis(2-(2-(2-methoxyethoxyl)ethoxy)acetamide)]
Prodrug loss at 0.5 hr [1]: 99.3%
Prodrug loss at 1 hr [1]: 100.0%
solubility at 1 h [2]: > 1000 µg/mL
Prodrug loss at 0.5 hr [3]: 100%
Prodrug loss at 1 hr [3]: 100%
Prodrug solubility in plasma [3]: Yes*
solubility at 1 h [4]: 1000 µg/mL

COCCOCCOCC(=O)NCCCC[C@H](NC(=O)COCCOCCOC)C(=O)N(C)CCCC(=O)ONC(=O)Cc1ccc(CCCCc2ccccc2)cc1 [Compound 64, (S)—N,N′-(6-(Methyl(4-oxo-4-(2-(4-(4-phenylbutyl)phenyl)acetamidooxy)butyl)amino)-6-oxohexane-1,5-diyl)bis(2-(2-(2-methoxyethoxyl)ethoxy)acetamide)]
Prodrug loss at 0.5 hr [1]: 78.7%
Prodrug loss at 1 hr [1]: 100.0%
pH at 1.00 mg/mL of MGCD290 in saline [2]: 4.5-5
solubility at 1 h [2]: > 1000 µg/mL
Prodrug loss at 0.5 hr [3]: 100%
Prodrug loss at 1 hr [3]: 100%
Prodrug solubility in plasma [3]: Yes
solubility at 1 h [4]: 10000 µg/mL

Cl.O=C(Cc1ccc(CCCCc2ccccc2)cc1)NOC(=O)CCC1CCNCC1 [Compound 110, 2-(4-(4-Phenylbutyl)phenyl)-N-(3-(piperidin-4-yl)propanoyloxy) acetamide hydrochloride]
Prodrug loss at 0.5 hr [1]: 85.5%
Prodrug loss at 1 hr [1]: 99.6%
pH at 1.00 mg/mL of MGCD290 in saline [2]: 4.5-5
solubility at 1 h [2]: > 1000 µg/mL
Prodrug loss at 0.5 hr [3]: 100%
Prodrug loss at 1 hr [3]: 100%
Prodrug solubility in plasma [3]: Yes*
solubility at 1 h [4]: 10000 µg/mL

COCCOCC(=O)NCCCC[C@H](NC(=O)COCCOC)C(=O)NCCC(=O)ONC(=O)Cc1ccc(CCCCc2ccccc2)cc1 [Compound 68]
Prodrug loss at 0.5 hr [1]: 98.6%
Prodrug loss at 1 hr [1]: 99.4%
pH at 1.00 mg/mL of MGCD290 in saline [2]: 4.5-5
solubility at 1 h [2]: > 1000 µg/mL
Prodrug loss at 0.5 hr [3]: 100%
Prodrug loss at 1 hr [3]: 100%
Prodrug solubility in plasma [3]: Yes*
solubility at 1 h [4]: 10000 µg/mL

COCCOCCOCCOCCOCCOCC(=O)N1CCC(CCC(=O)ONC(=O)Cc2ccc(CCCCc3ccccc3)cc2)CC1 [Compound 111, N-(3-(1-2,5,8,11,14,17-Hexaoxanonadecanepiperidin-4-yl)propanoyloxy)-2-(4-(4-phenylbutyl)phenyl)acetamide]
Prodrug loss at 0.5 hr [1]: 65.5%
Prodrug loss at 1 hr [1]: 90.5%
pH at 1.00 mg/mL of MGCD290 in saline [2]: 4.5-5
solubility at 1 h [2]: > 1000 µg/mL
Prodrug loss at 0.5 hr [3]: 98%
Prodrug loss at 1 hr [3]: 99%
Prodrug solubility in plasma [3]: Yes*
solubility at 1 h [4]: 10000 µg/mL

COCCOCCOCCOCCOCCOCC(=O)N1CCC(CCCC(=O)ONC(=O)Cc2ccc(CCCCc3ccccc3)cc2)CC1 [Compound 122]
Prodrug loss at 0.5 hr [1]: 66.6%
Prodrug loss at 1 hr [1]: 91.9%
pH at 1.00 mg/mL of MGCD290 in saline [2]: 5.-5.5
solubility at 1 h [2]: > 1000 µg/mL
Prodrug loss at 0.5 hr [3]: 100%
Prodrug loss at 1 hr [3]: 100%
Prodrug solubility in plasma [3]: Yes**
solubility at 1 h [4]: 10000 µg/mL

NCC1(C(=O)ONC(=O)Cc2ccc(CCCCc3ccccc3)cc2)CC1 [Compound 54, N-(1-(aminomethyl)cyclopropanecarbonyloxy)-2-(4-(4-phenylbutyl)phenyl)acetamide]
Prodrug loss at 0.5 hr [1]: 50.9%
Prodrug loss at 1 hr [1]: 71.6%
pH at 1.00 mg/mL of MGCD290 in saline [2]: 4-4.5
solubility at 1 h [2]: > 1000 µg/mL
Prodrug loss at 0.5 hr [3]: 62.6%
Prodrug loss at 1 hr [3]: 100%
Prodrug solubility in plasma [3]: Yes
solubility at 1 h [4]: 2500 µg/mL

COCCOCCOCC(=O)NCCCC[C@H](NC(=O)COCCOCCOC)C(=O)NCCCC(=O)ONC(=O)Cc1ccc(CCCCc2ccccc2)cc1 [Compound 99, (S)—N,N-(6-Oxo-6-(4-oxo-4-(2-(4-(4-phenylbutyl)phenyl)acetamidooxy)butylamino)hexane-1,5-diyl)bis(2-(2-(2-methoxyethoxyl)ethoxy)acetamide)]
Prodrug loss at 0.5 hr [1]: 22.7%
Prodrug loss at 1 hr [1]: 89.1%
pH at 1.00 mg/mL of MGCD290 in saline [2]: 4.5-5
solubility at 1 h [2]: > 1000 µg/mL
Prodrug loss at 0.5 hr [3]: 100%
Prodrug loss at 1 hr [3]: 100%
Prodrug solubility in plasma [3]: Yes*
solubility at 1 h [4]: 2500 µg/mL
